In patent US20080090878A1, “Pharmaceutical combinations and their use in treating gastrointestinal and abdominal viscera disorders” (priority 1999, published 2008):

Tested on: Guinea-Pig Colon Entero-Chromaffin Cells
Assay: Release of serotonin (5HT) from guinea-pig colon entero-chromaffin cells, organ bath, HPLC
Type: cell-based, guinea-pigs
Details: guinea-pig proximal colon
Experimental: Male guinea-pigs, 200-400 g are stunned and bled. Segments of the proximal colon are removed and suspended, as described by Trendelenburg in Arch. Exp. Path. Pharmakol., 81, 55-129 (1917), in a 20 ml organ bath. The tissue is bathed with a modified Krebs solution (NaCl 118.6; CaCl2 2.7; KCl 4.7; KH2 PO4 1.2; MgSO4 0.1; NaHCO3 25.0; and glucose 5.6 mM), maintained at 37° C. 5-HT is determined by high-performance liquid chromatography with electro-chemical detection. […] To individual organ baths the following agents are added prior to the addition of physostigmine (1 microM): 1) no addition (negative control), 2) atropine (0.2 microM) (positive control), 3) hexamethonium (100 microM) (positive control), 4) tegaserod, 5) cilansetron, 6) prucalopride, 7) A-85380, 8) fedotozine, 9) chlordiazepoxide, 10) CGP49823, 11) buproprion, 12) fluvoxamine, 13) tegaserod plus cilansetron, 14) tegaserod plus prucalopride, 15) tegaserod plus A-85380, 16)-tegaserod plus fedotozine, 17) tegaserod plus chlordiazepoxide, 18) tegaserod plus SDZ-NKT-343, 19) tegaserod plus buproprion, or 20) tegaserod plus fluvoxamine. The combination of agents results in an amplification of the reduction of physostigmine-induced serotonin outflow as compared to any of the agents alone.

Structure (SMILES) | luminal outflow of 5-HT (100 microM) | luminal outflow of 5-HT (0.2 microM)
C[N+](C)(C)CCCCCC[N+](C)(C)C [hexamethonium] | significantly reduced | –
CN1[C@@H]2CC[C@H]1C[C@@H](OC(=O)C(CO)c1ccccc1)C2 (some centres unmarked) [atropine] | – | significantly reduced
